Values after ≈ are worked out from the molar mass of the structure shown.
How the values were obtained:
[1] = system: Mycobacterium avium subsp. paratuberculosis; format: functional; details: isolate CIT03, 264 h
[2] = system: Mycobacterium avium complex sp.; format: functional; details: isolate CIT19/06, 120 h
THP-1 = assay: Cytotoxicity against human THP1 cells assessed as reduction in cell viability incubated for 24 hrs by WST1 dye based assay; details: THP-1, 24 h
[3] = Lipophilicity assessed as capacity factor logK of the compound by HPLC method; format: physicochemical
[4] = system: Mycobacterium tuberculosis; assay: microbe, parasite or virus in culture; details: H37Ra ATCC 25177, 168 h
Description: Antimycobacterial activity against Mycobacterium tuberculosis H37Ra ATCC 25177 assessed as reduction in bacterial growth incubated at 37 degC for 7 days by alamar blue dye based assay

[5] = system: Mycobacterium tuberculosis; format: functional, H37Ra ATCC 25177

| SMILES | MIC90 [1] | MIC90 [2] | IC50 (THP-1) | log K [3] | MIC90 [4] | Activity [5] |
| --- | --- | --- | --- | --- | --- | --- |
| O=C(Nc1ccccc1)c1ccc2cccc(O)c2n1 | 30 µM (≈ 7.93 µg/mL) | 30 µM (≈ 7.93 µg/mL) | > 30 µM | 0.76 | 30 µM (≈ 7.93 µg/mL) | – |
| O=C(Nc1ccc(F)cc1)c1ccc2cccc(O)c2n1 | 53 µM (≈ 15 µg/mL) | 53 µM (≈ 15 µg/mL) | > 30 µM | 0.8598 | 53 µM (≈ 15 µg/mL) | – |
| COc1ccccc1NC(=O)c1ccc2cccc(O)c2n1 | 51 µM (≈ 15 µg/mL) | 51 µM (≈ 15 µg/mL) | > 30 µM | 0.7935 | 27 µM (≈ 7.95 µg/mL) | – |
| COc1cccc(NC(=O)c2ccc3cccc(O)c3n2)c1 | 27 µM (≈ 7.95 µg/mL) | 27 µM (≈ 7.95 µg/mL) | > 30 µM | 0.8164 | 27 µM (≈ 7.95 µg/mL) | 30.9% |
| COc1ccc(NC(=O)c2ccc3cccc(O)c3n2)cc1 | 849 µM (≈ 250 µg/mL) | 425 µM (≈ 125 µg/mL) | > 30 µM | 0.7129 | 849 µM (≈ 250 µg/mL) | – |
| Cc1ccccc1NC(=O)c1ccc2cccc(O)c2n1 | 29 µM (≈ 8.07 µg/mL) | 54 µM (≈ 15 µg/mL) | > 30 µM | 0.6944 | 29 µM (≈ 8.07 µg/mL) | – |
| Cc1cccc(NC(=O)c2ccc3cccc(O)c3n2)c1 | 29 µM (≈ 8.07 µg/mL) | 29 µM (≈ 8.07 µg/mL) | > 30 µM | 0.9686 | 29 µM (≈ 8.07 µg/mL) | 66.4% |
| Cc1ccc(NC(=O)c2ccc3cccc(O)c3n2)cc1 | 29 µM (≈ 8.07 µg/mL) | 54 µM (≈ 15 µg/mL) | > 30 µM | 0.9521 | 29 µM (≈ 8.07 µg/mL) | – |
| O=C(Nc1ccccc1F)c1ccc2cccc(O)c2n1 | 28 µM (≈ 7.9 µg/mL) | 53 µM (≈ 15 µg/mL) | > 30 µM | 0.6806 | 28 µM (≈ 7.9 µg/mL) | 26.9% |
| O=C(Nc1cccc(F)c1)c1ccc2cccc(O)c2n1 | 53 µM (≈ 15 µg/mL) | 53 µM (≈ 15 µg/mL) | > 30 µM | 0.942 | 53 µM (≈ 15 µg/mL) | – |
| O=C(Nc1ccccc1Cl)c1ccc2cccc(O)c2n1 | 27 µM (≈ 8.07 µg/mL) | 837 µM (≈ 250 µg/mL) | > 30 µM | 0.9566 | 27 µM (≈ 8.07 µg/mL) | 21.4% |
| O=C(Nc1cccc(Cl)c1)c1ccc2cccc(O)c2n1 | 50 µM (≈ 14.9 µg/mL) | 50 µM (≈ 14.9 µg/mL) | > 30 µM | 1.1718 | 50 µM (≈ 14.9 µg/mL) | – |
| O=C(Nc1ccc(Cl)cc1)c1ccc2cccc(O)c2n1 | 837 µM (≈ 250 µg/mL) | 50 µM (≈ 14.9 µg/mL) | > 30 µM | 1.1543 | 837 µM (≈ 250 µg/mL) | – |
| O=C(Nc1ccccc1Br)c1ccc2cccc(O)c2n1 | 23 µM (≈ 7.89 µg/mL) | 729 µM (≈ 250 µg/mL) | > 30 µM | 1.0536 | 23 µM (≈ 7.89 µg/mL) | 26.9% |
| O=C(Nc1cccc(Br)c1)c1ccc2cccc(O)c2n1 | 44 µM (≈ 15.1 µg/mL) | 44 µM (≈ 15.1 µg/mL) | > 30 µM | 1.2357 | 44 µM (≈ 15.1 µg/mL) | – |
| O=C(Nc1ccc(Br)cc1)c1ccc2cccc(O)c2n1 | 729 µM (≈ 250 µg/mL) | 44 µM (≈ 15.1 µg/mL) | > 30 µM | 1.2347 | 729 µM (≈ 250 µg/mL) | – |
| O=C(Nc1ccccc1C(F)(F)F)c1ccc2cccc(O)c2n1 | 24 µM (≈ 7.97 µg/mL) | 752 µM (≈ 250 µg/mL) | > 30 µM | 0.9147 | 24 µM (≈ 7.97 µg/mL) | 53.4% |
| O=C(Nc1cccc(C(F)(F)F)c1)c1ccc2cccc(O)c2n1 | 24 µM (≈ 7.97 µg/mL) | 24 µM (≈ 7.97 µg/mL) | > 30 µM | 1.3206 | 24 µM (≈ 7.97 µg/mL) | 18.8% |
| O=C(Nc1ccc(C(F)(F)F)cc1)c1ccc2cccc(O)c2n1 | 24 µM (≈ 7.97 µg/mL) | 24 µM (≈ 7.97 µg/mL) | > 30 µM | 1.3653 | 24 µM (≈ 7.97 µg/mL) | 33.1% |
| O=C(Nc1ccccc1[N+](=O)[O-])c1ccc2cccc(O)c2n1 | 97 µM (≈ 30 µg/mL) | 808 µM (≈ 250 µg/mL) | > 30 µM | 1.1277 | 97 µM (≈ 30 µg/mL) | – |
| O=C(Nc1cccc([N+](=O)[O-])c1)c1ccc2cccc(O)c2n1 | 808 µM (≈ 250 µg/mL) | 808 µM (≈ 250 µg/mL) | > 30 µM | 0.9845 | 26 µM (≈ 8.04 µg/mL) | 7% |
| O=C(Nc1ccc([N+](=O)[O-])cc1)c1ccc2cccc(O)c2n1 | 404 µM (≈ 125 µg/mL) | 808 µM (≈ 250 µg/mL) | > 30 µM | 1.0495 | 26 µM (≈ 8.04 µg/mL) | 17.3% |
| CO[C@H]1/C=C/O[C@@]2(C)Oc3c(C)c(O)c4c(O)c(c(/C=N/N5CCN(C)CC5)c(O)c4c3C2=O)NC(=O)/C(C)=C\C=C\[C@H](C)[C@H](O)[C@@H](C)[C@@H](O)[C@@H](C)[C@H](OC(C)=O)[C@@H]1C [RIFAMPIN] | 109 µM (≈ 89.7 µg/mL) | 10 µM (≈ 8.23 µg/mL) | – | – | 10 µM (≈ 8.23 µg/mL) | – |

— ChEMBL document CHEMBL3593232, “Ring-substituted 8-hydroxyquinoline-2-carboxanilides as potential antimycobacterial agents” (Bioorg Med Chem, 2015)
